Activity calls are given as the source filed them. How the calls were made is not given here.
Test system: CCRIS mutagenicity, Ames/micronucleus/aberration tests
Test: CCRIS mutagenicity studies
[1] = Test System: AMES SALMONELLA TYPHIMURIUM, Strain/Indicator: TA98(1,8-DNP6), Metabolic Activation: NONE, Method: STANDARD PLATE
[2] = Test System: AMES SALMONELLA TYPHIMURIUM, Strain/Indicator: TA98(NR), Metabolic Activation: NONE, Method: STANDARD PLATE
[3] = Test System: AMES SALMONELLA TYPHIMURIUM, Strain/Indicator: TA98, Metabolic Activation: NONE, Method: STANDARD PLATE
[4] = Test System: AMES SALMONELLA TYPHIMURIUM, Strain/Indicator: TA98, Metabolic Activation: RAT, LIVER, S-9, AROCLOR 1254, Method: STANDARD PLATE
[5] = Test System: AMES SALMONELLA TYPHIMURIUM, Strain/Indicator: TA100, Metabolic Activation: NONE, Method: STANDARD PLATE

Measured: mutagenic call

O=[N+]([O-])c1ccc(Sc2ccccc2)cc1
active: [1] active; positive | [3] active; positive | [4] active; positive
inactive: [2] inactive; negative

c1ccc2c(c1)c1c(c3c4ccccc4c4ccccc4c23)O1
active: Test System: AMES SALMONELLA TYPHIMURIUM, Strain/Indicator: TA98, Metabolic Activation: NONE, Method: PREINCUBATION (KCL-CONTAINING MEDIUM) active; positive | Test System: AMES SALMONELLA TYPHIMURIUM, Strain/Indicator: TA98, Metabolic Activation: NONE, Method: PREINCUBATION (KCL-FREE MEDIUM) active; positive | Test System: AMES SALMONELLA TYPHIMURIUM, Strain/Indicator: TA100, Metabolic Activation: NONE, Method: PREINCUBATION (KCL-FREE OR KCL-CONTAINING MEDIA) active; positive

O=C(OC[C@@H]1CO1)c1ccc([N+](=O)[O-])cc1
active: [5] active; positive

COC(=O)C1Cc2c([nH]c3ccc([N+](=O)[O-])cc23)C(C)N1N=O (stereo not drawn)
inactive: Test System: AMES SALMONELLA TYPHIMURIUM, Strain/Indicator: TA98(NR), Metabolic Activation: RAT, LIVER, S-9, AROCLOR 1254, Method: STANDARD PLATE inactive; negative
active: [2] active; positive

Cc1c(N)ccc(N=Nc2ccccc2)c1N
active: Test System: AMES SALMONELLA TYPHIMURIUM, Strain/Indicator: TA100, Metabolic Activation: HUMAN, LIVER, S-9, Method: PREINCUBATION active; positive | Test System: AMES SALMONELLA TYPHIMURIUM, Strain/Indicator: TA100, Metabolic Activation: RAT, LIVER, S-9, BETA-NAPHTHOFLAVONE, Method: PREINCUBATION active; positive | Test System: AMES SALMONELLA TYPHIMURIUM, Strain/Indicator: TA100, Metabolic Activation: RAT, LIVER, S-9, PHENOBARBITAL, Method: PREINCUBATION active; positive | Test System: AMES SALMONELLA TYPHIMURIUM, Strain/Indicator: TA100, Metabolic Activation: RAT, LIVER, S-9, Method: PREINCUBATION active; positive | Test System: UDS RODENT HEPATOCYTES, Strain/Indicator: THY INCORP, Metabolic Activation: NONE, Method: AUTORADIOGRAPHY active; positive

O=[N+]([O-])c1ccc2c(ccc3cc([N+](=O)[O-])ccc32)c1
active: [1] active; positive | [2] active; positive | Test System: AMES SALMONELLA TYPHIMURIUM, Strain/Indicator: TA98, Metabolic Activation: NONE, Method: PREINCUBATION active; positive | [3] active; positive | Test System: AMES SALMONELLA TYPHIMURIUM, Strain/Indicator: TA7001, Metabolic Activation: NONE, Method: PREINCUBATION active; positive | Test System: AMES SALMONELLA TYPHIMURIUM, Strain/Indicator: TA7002, Metabolic Activation: NONE, Method: PREINCUBATION active; positive | Test System: AMES SALMONELLA TYPHIMURIUM, Strain/Indicator: TA7003, Metabolic Activation: NONE, Method: PREINCUBATION active; positive | Test System: AMES SALMONELLA TYPHIMURIUM, Strain/Indicator: TA7004, Metabolic Activation: NONE, Method: PREINCUBATION active; positive | Test System: AMES SALMONELLA TYPHIMURIUM, Strain/Indicator: TA7005, Metabolic Activation: NONE, Method: PREINCUBATION active; positive | Test System: AMES SALMONELLA TYPHIMURIUM, Strain/Indicator: TA7006, Metabolic Activation: NONE, Method: PREINCUBATION active; positive
inactive: Test System: AMES SALMONELLA TYPHIMURIUM, Strain/Indicator: TA98, Metabolic Activation: RAT, LIVER, S-9, PCB (10%), Method: PREINCUBATION inactive; negative

Cc1c(N=O)c(=O)n(-c2ccccc2)n1C
active: Test System: AMES SALMONELLA TYPHIMURIUM, Strain/Indicator: TA97, Metabolic Activation: NONE, Method: STANDARD PLATE active; positive | Test System: AMES SALMONELLA TYPHIMURIUM, Strain/Indicator: TA97, Metabolic Activation: RAT, LIVER, S-9, AROCLOR 1254, Method: STANDARD PLATE active; positive | [3] active; positive | [4] active; positive | [5] active; positive | Test System: AMES SALMONELLA TYPHIMURIUM, Strain/Indicator: TA100, Metabolic Activation: RAT, LIVER, S-9, AROCLOR 1254, Method: STANDARD PLATE active; positive | Test System: AMES SALMONELLA TYPHIMURIUM, Strain/Indicator: TA102, Metabolic Activation: NONE, Method: STANDARD PLATE active; positive | Test System: AMES SALMONELLA TYPHIMURIUM, Strain/Indicator: TA102, Metabolic Activation: RAT, LIVER, S-9, AROCLOR 1254, Method: STANDARD PLATE active; positive | Test System: AMES SALMONELLA TYPHIMURIUM, Strain/Indicator: TA104, Metabolic Activation: NONE, Method: STANDARD PLATE active; positive | Test System: AMES SALMONELLA TYPHIMURIUM, Strain/Indicator: TA104, Metabolic Activation: RAT, LIVER, S-9, AROCLOR 1254, Method: STANDARD PLATE active; positive

O=Cc1ccc([N+](=O)[O-])o1
active: [1] active; positive | Test System: AMES SALMONELLA TYPHIMURIUM, Strain/Indicator: TA98(1,8-DNP6), Metabolic Activation: RAT, LIVER, S-9, 3-METHYLCHOLANTHRENE, Method: STANDARD PLATE active; positive | [2] active; positive | Test System: AMES SALMONELLA TYPHIMURIUM, Strain/Indicator: TA98(NR), Metabolic Activation: RAT, LIVER, S-9, 3-METHYLCHOLANTHRENE, Method: STANDARD PLATE active; positive | [3] active; positive | Test System: AMES SALMONELLA TYPHIMURIUM, Strain/Indicator: TA98, Metabolic Activation: RAT, LIVER, S-9, 3-METHYLCHOLANTHRENE, Method: STANDARD PLATE active; positive | Test System: AMES SALMONELLA TYPHIMURIUM, Strain/Indicator: TA100(1,8-DNP6), Metabolic Activation: NONE, Method: PREINCUBATION active; positive | Test System: AMES SALMONELLA TYPHIMURIUM, Strain/Indicator: TA100(1,8-DNP6), Metabolic Activation: RAT, LIVER, S-9, AROCLOR 1254, Method: PREINCUBATION active; positive | Test System: AMES SALMONELLA TYPHIMURIUM, Strain/Indicator: TA100(NR), Metabolic Activation: NONE, Method: PREINCUBATION active; positive | Test System: AMES SALMONELLA TYPHIMURIUM, Strain/Indicator: TA100(NR), Metabolic Activation: RAT, LIVER, S-9, AROCLOR 1254, Method: PREINCUBATION active; positive | Test System: AMES SALMONELLA TYPHIMURIUM, Strain/Indicator: TA100, Metabolic Activation: NONE, Method: PREINCUBATION active; positive | Test System: AMES SALMONELLA TYPHIMURIUM, Strain/Indicator: TA100, Metabolic Activation: RAT, LIVER, S-9, AROCLOR 1254, Method: PREINCUBATION active; positive

Reference: PubChem BioAssay AID1259407 (Chemical Carcinogenesis Research Information System (CCRIS), 2018)
